Laboratory results from patent US5800991A, “Nucleotide or nucleoside photoaffinity compound modified antibodies, methods for their manufacture and use thereof as diagnostics and therapeutics” (University of Kentucky Research Foundation, priority 1996, dated 1998).
“Also recorded” adds a separate entry of the source. Like-named read-outs stand apart in the source and are kept apart here.

Key:
S1C5 antibody [1] = assay: Protection of S1C5 photolabeling by amino acids; assay type: binding, murine; details: 200 μM [γ^32 P]8-N3 ATP
Procedure: (§1) Antibodies (3 μg) were incubated with 200 μM [γ^32 P]8-N3 ATP (5-30 mCi/μmole) in a final volume of 30 μL for 1 minute and photolyzed with a hand-held UV lamp at 254 nm for 1 min. The reactions were quenched with protein solubilizing mixture (10% SDS, 3.6M urea, 162 mM DTT, Pyronin Y and 20 mM Tris, pH 8.0) and analyzed by 6-14% gradient SDS-PAGE. The gels were stained with Coomassie Brilliant Blue, destained, and dried using a slab gel drier. ^32 P incorporation was detected by autoradiography and quantified by either scanning on an optical Image and Acquisition Analysis (Ambis, Inc.) or by cutting the appropriate band from the gel counting the radioactivity by liquid scintillation counting.
(§2) Antibody S1C5 (Maloney et al, Hybridoma, 4:191-209 (1985)), and 8019 (Koprowsky et al, Somat. Cell. Genet., 5:957-961 (1979)) each (3 μg) were incubated with increasing concentrations of [γ^32 P]8-N3 ATP for 1 min at 4° C. and photolyzed and analyzed as described above. Protection of photolabeling of S1C5 and 8019 was performed by incubating […] of antibodies with increasing concentrations of ATP for 2 min followed by incubation with 200 μM [γ^32 P]8-N3 ATP for 1 min and photolyzed and analyzed as described above. […]

antibody affinity site = assay: Protection experiments with nucleotides and nucleosides against [γ^32 P]8-N3 ATP photolabeling; assay type: binding; details: data not shown
Procedure: as §1, §2

SIC5 antibody [2] = assay: Inhibition by ATP of [γ^32 P]-8-N3 ATP photoincorporation into SIC5 (S1C5) antibody; assay type: binding, murine
Procedure: The SIC5 antibody was again labeled, but in this example labeling was performed in the presence of increasing amounts of free ATP. Specifically,3 μg of the SIC5 antibody was photolyzed in the presence of 200 μm [γ^32 P]-8-N3 ATP using concentrations of ATP ranging from 0 to 700 μm. The labeled protein was again separated by SDS-PAGE; and radioactivity determined by liquid scintillation counting.
as §1
(§3) Antibody S1C5 (Maloney et al, Hybridoma, 4:191-209 (1985)), and 8019 (Koprowsky et al, Somat. Cell. Genet., 5:957-961 (1979)) each (3 μg) were incubated with increasing concentrations of [γ^32 P]8-N3 ATP for 1 min at 4° C. and photolyzed and analyzed as described above. Protection of photolabeling of S1C5 and 8019 was performed by incubating […] of antibodies with increasing concentrations of ATP for 2 min followed by incubation with 200 μM [γ^32 P]8-N3 ATP for 1 min and photolyzed and analyzed as described above. Protection experiments using amino acids were performed by incubating 3 μg of S1C5 antibody with increasing concentrations of amino acids for 2 min, followed by incubation with 200 μM [γ^32 P]8-N3 ATP for 1 min. Photolysis and analysis were performed as described.

8019 antibody [3] = assay: Inhibition by ATP of [γ^32 P]8-N3 ATP photolabeling of 8019 antibody; assay type: binding; details: 8019, 200 μM [γ^32 P]8-N3 ATP, in words
Procedure: as §1, §2

SIC5 antibody [4] = assay: Photolabeling saturation of SIC5 (S1C5) antibody with [γ^32 P]-8-N3 ATP; assay type: binding, murine
Procedure: In particular, 3 μg of SIC5 antibody in […] of photolysis buffer was photolyzed with increasing concentrations of [γ^32 P]-8-N3 ATP and then separated by SDS-PAGE. ^32 P incorporation was detected by autoradiography and quantified by scanning on Optical Imaging Acquisition Analysis (Ambis, Inc.). Photoincorporation was quantitatively confirmed by cutting the appropriate band and determining radioactivity by liquid scintillation counting. […] It can further be seen that there is a defined saturating concentration of probe at about 200 μm for both chains. This saturation plateau provides strong evidence that there exists a unique and limited number of affinity sites of the antibody which are bound by the [γ^32 P]-8-N3 ATP compound.
as §1, §3

8019 antibody [5] = assay: Photolabeling saturation of 8019 antibody with [γ^32 P]8-N3 ATP; assay type: binding; details: 8019, Example 10
Procedure: as §1, §2

S1C5 antibody [6] = assay: Quantitative immuno-precipitation of [γ^32 P]8-N3 ATP labeled S1C5 (stoichiometry); assay type: binding, murine; details: triplicate experiments
Excerpt: Amino acid sequence of S1C5 and 8019 were deduced from the cloned and sequenced V genes (FIG. 12c). The identified peptides from photoaffinity labeling corresponded to sequences located in the variable Ig domain. The peptides eluted first (T1) from each antibody are derived from the CDR1 domain of the variable light chain extending into FR2. The second eluted peptides (T2) are from the CDR3-FR4 region of the variable heavy chain domain. It is striking that both peptides included invariant aromatic residues, Trp H103 in the VH domain and the highly conserved Tyr L36 within the VL domain.

[7] = tested on: murine B-cell tumor idiotype 38C13; assay: Competition of γ^32 P-labeled S1C5 binding to its cellular target by unlabeled antibody; assay type: cell-based; details: 38C13, data not shown
Procedure: (§4) To determine whether the modification of this site affects antigen recognition the binding of photolabeled S1C5 (IgG2a, κ) and 8019 (IgG1, κ) to their respective antigens was tested, S1C5 is specific for a murine B-cell tumor idiotype 38C13 (13) and 8019 recognizes the CEA antigen (Koprowsky et al, Somat. Cell. Genet., 5:957-961 (1979)), expressed by the LS17T4 tumor cell line. […] Also, these same antibodies were photomodified with biotinylated 8-N3 adenosine and used in FACS. […] A comparison of the photoaffinity biotinylated antibodies with conventionally biotinylated antibodies in FACS produced nearly identical staining (manuscript submitted).

38C13 tumor cells = assay: FACS of biotinylated 8-azidoadenosine labeled S1C5; assay type: cell-based, murine; details: biotinylated 8-N3 adenosine modified antibody
Procedure: (§5) Tumor cells (38C13 and LS174T, 1×10^6) were incubated with biotinylated 8-azidoadenosine labeled antibody S1C5 or 8019 (manuscript submitted) for 60 min. on ice. After washing with 5% FCS/PBS, Neutralite Avidin-FITC (Southern Biotechnology Associates, Inc.) was added and incubated for 30 min., fixed and subjected to flow cytometry. FACS data were generated front a minimum of 9900 cells per sample.
as §4

[8] = tested on: CEA antigen, LS174T tumor cells; assay: Competition of γ^32 P-labeled 8019 binding to its cellular target by unlabeled antibody; assay type: cell-based; details: data not shown
Procedure: as §4

LS174T tumor cells = assay: FACS of biotinylated 8-azidoadenosine labeled 8019; assay type: cell-based; details: biotinylated 8-N3 adenosine modified antibody
Procedure: as §5, §4

For `N[C@@H](Cc1c[nH]c2ccccc12)C(=O)O` [tryptophan], which “protection against photolabeling by amino acids” value (S1C5 antibody [1]) is on record?
The value was “best protection”.

Which “binding relative to 8-N3 ATP” value (antibody affinity site) does the source give for `[N-]=[N+]=Nc1nc2c(N)ncnc2n1[C@@H]1O[C@H](CO)[C@@H](O)[C@H]1O` [8-azidoadenosine] here?
The value was “tighter binding than 8-N3 ATP”.

With `Nc1ncnc2c1ncn2[C@@H]1O[C@H](COP(=O)(O)OP(=O)(O)OP(=O)(O)O)[C@@H](O)[C@H]1O` [ATP] as the molecule, how does the IC50 (SIC5 antibody [2]; 200 μm [γ^32 P]-8-N3 ATP, ATP 0 to 700 μm, Example 2, read-out: ATP concentration for 50% inhibition of labeling) read?
Its IC50 is roughly 350 µM.

What about the IC50 (SIC5 antibody [2]; ATP vs [γ^32 P]-8-N3 ATP, FIG. 2 legend, read-out: 50% inhibition of photoincorporation) of the same molecule?
Its IC50 is roughly 350 µM.

And the “protection against photolabeling by ATP” value (SIC5 antibody [2]; S1C5, 200 μM [γ^32 P]8-N3 ATP, in words)?
Its value is “Photolabeling could be prevented; also recorded: photolabeling is inhibited by ATP”.

What about the “protection against photolabeling by ATP” value (8019 antibody [3]) of the same molecule?
The value was “Photolabeling could be prevented; also recorded: photolabeling is inhibited by ATP”.

Which results are given for `[N-]=[N+]=Nc1nc2c(N)ncnc2n1[C@@H]1O[C@H](COP(=O)(O)OP(=O)(O)O[32P](=O)(O)O)[C@@H](O)[C@H]1O` [[γ^32 P]-8-N3 ATP]?
saturation of photolabeling (SIC5 antibody [4]; S1C5, Example 10): 150 to 175 µM; Kd (SIC5 antibody [4]; S1C5, Example 10, read-out: apparent Kd): 75 µM; saturating concentration of probe (SIC5 antibody [4]; [γ^32 P]-8-N3 ATP, both heavy and light chains, Example 1): about 200 μm; photoincorporation into heavy and light chains (SIC5 antibody [4]; in words, Example 1): covalently attaching to both antibody heavy and light chains; also recorded: covalently attached to both heavy and light chains; saturation of photolabeling (8019 antibody [5]): about 50 μM; Kd (8019 antibody [5]; read-out: apparent Kd): 25 µM; average number of molecules of 8-N3 ATP/Ig molecule (S1C5 antibody [6]): 1.9±0.2 molecules of 8-N3 ATP/Ig molecule

B1: S1C5: anti-B cell lymphoma idiotype antibody; specific for a murine B-cell tumor idiotype 38C13 (protein)
chain: QIVLTQSPAINSASLGERVTMTCTASSSVSSSYFHWYQQKQGSSPKLWIYTTSNLASGVPARFSGSGSGTSYSLTISSMEAEDAATYYCHQYHRSPLTFGAGTKLELKRAQVQLQQSDAILVKPGASVKISCKASGYTFTDHVIHWVKQRPEQLGEWIGFISPGNGDIRYNEKFKDKATADKSSSTAYMQLNSLTSEDSAVYFCKRSFYYYDDNYGDYWGQGTTLTVSSAK
modifications: photoaffinity label in the variable domains as tested: biotinylated 8-azidoadenosine (FACS) or [gamma-32P]8-N3ATP (cell binding competition); labelled residue not fixed
notes: anti-B cell lymphoma idiotype antibody; specific for a murine B-cell tumor idiotype 38C13
Which “inhibition of γ^32 P-labeled antibody binding by unlabeled antibody” value [7] does the source give for B1 here?
Its value is “inhibited on an apparent 1:1 ratio by unlabeled antibodies”.

What about the “binding to tumor cell targets by flow cytometry” value (38C13 tumor cells) of the same molecule?
Its value is “recognized their specific tumor cell targets”.

B2: 8019: IgG1, κ antibody; recognizes the CEA antigen expressed by the LS17T4 tumor cell line (protein)
chain: DIVLTQSPASLSASVGETVTITCRASENIYSYLLWYQQKQGKSPQLLVYNAKTLAEGVPSRFSGSGSGTQFSLKINSLQPEDFGSYFCQHHFGTPWTFGGGTSLEIKRAEVNLEESGGGLVQPGGSMKLSCAASGFTESDAWMDWVRQSPEKGLEWVAEIRTKVNNHATYYAESVKGRFTISRDDSKSNVYLQMNSLRVEDTGIYYCTMAYYEAYWGQGTLVTSAAK
modifications: photoaffinity label in the variable domains as tested: biotinylated 8-azidoadenosine (FACS) or [gamma-32P]8-N3ATP (cell binding competition); labelled residue not fixed
notes: IgG1, κ antibody; recognizes the CEA antigen expressed by the LS17T4 tumor cell line
With B2 as the molecule, how does the “inhibition of γ^32 P-labeled antibody binding by unlabeled antibody” value [8] read?
The value was “inhibited on an apparent 1:1 ratio by unlabeled antibodies”.

And the “binding to tumor cell targets by flow cytometry” value (LS174T tumor cells)?
The value was “recognized their specific tumor cell targets”.
